The subject of this experiment is HCV 1b-377-neo replicon cells. Nature of the experiment: HCV replicon FRET assay. Type of experiment: cell-based. Conditions: Hepatitis C virus; HCV replicon; read-out: Activity (EC50). The text has this:
The HCV replicon cell line was isolated from colonies as described by Lohman, et. al. (Science 1999, 285, 110-113, expressly incorporated by reference in its entirety) and used for all experiments. The HCV replicon has the nucleic acid sequence set forth in EMBL Accession No.: AJ242652, the coding sequence of which is from nt 1801 to 7758.
The coding sequence of the published HCV replicon was synthesized by Operon Technologies, Inc. (Alameda, Calif.), and the fall-length replicon was then assembled in plasmid pGem9zf(+) (Promega, Madison, Wis.) using standard molecular biology techniques. The replicon consists of (i) the HCV 5′ UTR fused to the first 12 amino acids of the capsid protein, (ii) the neomycin phosphotransferase gene (neo), (iii) the IRES from encephalomyocarditis virus (EMCV), and (iv) HCV NS3 to NS5B genes and the HCV 3′ UTR. Plasmid DNAs were linearized with ScaI and RNA transcripts were synthesized in vitro using the T7 MegaScript transcription kit (Ambion, Austin, Tex.) according to manufacturer's directions.
To generate cell lines, 4×10^6 Huh-7 cells (kindly provided by R. Bartenschlager and available from Health Science Research Resources Bank, Japan Health Sciences Foundation) were electroporated (GenePulser System, Bio-Rad) with 10 micrograms(“μg”) of RNA transcript and plated into 100-mm dishes. After 24 hours, selective media containing 1.0 milligrams/milliliter (“mg/mL”) G418 was added and media was changed every 3 to 5 days. […] These cell lines were maintained at 37° C., 5% CO2, 100% relative humidity in DMEM (Cat#11965-084) Gibco-BRL, Rockville, Md., with 10% heat inactivated calf serum (Sigma), 10 mL of 100× penicillin/streptomycin (Cat#15140-122) Gibco-BRL, Rockville, Md., Geneticin (Cat#10131-027) Gibco-BRL, Rockville, Md. at 1 mg/mL. One of the cell lines (deposited as ATCC Accession No. PTA-4583 in the American Type Culture Collection) which had approximately 3,000 copies of HCV replicon RNA/cell was used for development of the assay (HCV 1b-377-neo replicon cells).
To perform the HCV FRET screening assay, 96-well cell culture plates were used. The FRET peptide (Anaspec, Inc., San Jose, Calif.) (Taliani et al., Anal. Biochem. 1996, 240, 60-67, hereby incorporated by reference in its entirety) contains a fluorescence donor, EDANS, near one end of the peptide and an acceptor, DABCYL, near the other end. The fluorescence of the peptide is quenched by […] resonance energy transfer (RET) between the donor and the acceptor, but as the NS3 protease cleaves the peptide the products are released from RET quenching and the fluorescence of the donor becomes apparent.
The assay reagent was made as follows: 5X luciferase cell culture lysis (Cat#E153A, Promega, Madison, Wis.) diluted to 1X with dH2O, NaCl added to […] final, the FRET peptide diluted to 20 micromolar (“μM”) final from a 2 mM stock. HCV 1b-377-neo replicon cells were trypsinized, placed into each well of a 96-well plate and allowed to attach overnight. The next day, the test compounds were added to columns 1 through 10; column 11 was media plus DMSO only, and column 12 contained a titration of interferon or an HCV specific inhibitor as a control (1000 units for A12, B12, 100 units for C12, D12, 10 units for E12, F12 and 1 unit for G12, H12). […] In addition, naïve Huh-7 cells could also be used to replace wells A12 and B12 as a background control.
At subsequent various times (typically 72 hours), 10% final volume Alamar blue (Cat#00-100, Trek Diagnostics, Cleveland, Ohio) was added to each well. The plates were returned to the incubator for 5 hours and then read in the Cytoflour (PE Biosystems) to determine Alamar blue conversion in each well as a measure of cellular toxicity.
(A replicon is a self-replicating genome or part of one, used to study replication in cells.)
By EC50 is commonly meant the concentration that produces a half-maximal response. With `O=C(Nc1ccc(/C=C/c2ccc(NC(=O)[C@@H]3CCCN3C(=O)[C@H]3CCCO3)cc2)cc1)[C@H]1CCCO1` [Example 263], the EC50 lay in the range of 1000 to 10000 nM.
Consider `Cc1nc2sccn2c1C(=O)N1CCC[C@H]1C(=O)Nc1ccc(/C=C/c2ccc(NC(=O)[C@@H]3CCCN3C(=O)c3c(C)nc4sccn34)cc2)cc1` [Example 214], for which the concentration for a half-maximal effect (EC50) lay within 0.1 to 90 nM.
On to `O=C(Nc1ccc(/C=C/c2ccc(NC(=O)[C@@H]3CCCN3C(=O)c3ccsc3)cc2)cc1)[C@@H]1CCCN1C(=O)c1ccsc1` [Example 68], for which the EC50 fell in the range of 0.1 to 90 nM.
For the molecule `CO[C@@H]1C[C@@H](C(=O)Nc2ccc(/C=C/c3ccc(NC(=O)[C@@H]4C[C@H](OC)CN4C(=O)OCc4ccccc4)cc3)cc2)N(C(=O)OCc2ccccc2)C1` [Example 15], the EC50 is 0.1 to 90 nM.
For `O=C(Nc1ccc(/C=C/c2ccc(NC(=O)[C@@H]3CCCN3C(=O)c3ccccc3Cc3ccccc3)cc2)cc1)[C@@H]1CCCN1C(=O)c1ccccc1Cc1ccccc1` [Example 171], the half-maximal effective concentration (EC50) lay in the range of 100 to 1000 nM.
As to `Nc1ccc(/C=C/c2ccc(NC(=O)[C@@H]3CCCN3C(=O)Cc3ccccc3)cc2)cc1` [Example 250A], the EC50 was in the range of 1000 to 10000 nM.
On to `O=C(Nc1ccc(/C=C/c2ccc(NC(=O)[C@@H]3CCCN3C(=O)c3ccco3)cc2)cc1)[C@@H]1CCCN1C(=O)c1ccco1` [Example 67], for which the EC50 is 100 to 1000 nM.
Regarding `CCOC(=O)N1CCC[C@H]1C(=O)Nc1ccc(/C=C/c2ccc(NC(=O)[C@@H]3CCCN3C(=O)C3(C(N)=O)CC3)cc2)cc1` [Example 56], the EC50 was 100 to 1000 nM.
In the case of `CC(C)c1sc(Cl)nc1C(=O)N1CCC[C@H]1C(=O)Nc1ccc(/C=C/c2ccc(NC(=O)[C@@H]3CCCN3C(=O)c3nc(Cl)sc3C(C)C)cc2)cc1` [Example 186], the EC50 was 100 to 1000 nM.
For the molecule `O=C(Nc1ccc(/C=C/c2ccc(NC(=O)[C@@H]3CCCN3C(=O)N3CCCC3)cc2)cc1)[C@@H]1CCCN1C(=O)N1CCCC1` [Example 286], the EC50 lay in the range of 100 to 1000 nM.
For `CCN(CC)C(=O)N1CCC[C@H]1C(=O)Nc1ccc(/C=C/c2ccc(NC(=O)[C@@H]3CCCN3C(=O)N(CC)CC)cc2)cc1` [Example 289] the value was 0.1 to 90 nM; for `O=C(Nc1ccc(/C=C/c2ccc(NC(=O)[C@@H]3CCCN3C(=O)[C@H]3CCCO3)cc2)cc1)C1CC1` [Example 260], 100 to 1000 nM.
In the case of `[N-]=[N+]=Nc1ccc(C(=O)N2CCC[C@H]2C(=O)Nc2ccc(/C=C/c3ccc(NC(=O)[C@@H]4CCCN4C(=O)c4ccc(N=[N+]=[N-])cc4)cc3)cc2)cc1` [Example 60] it was 1000 to 10000 nM; in that of `CSCC(=O)N1CCC[C@H]1C(=O)Nc1ccc(/C=C/c2ccc(NC(=O)[C@@H]3CCCN3C(=O)Cc3cc(C)no3)cc2)cc1` [Example 94], 0.1 to 90 nM; in that of `CC(C)c1scnc1C(=O)N1CCC[C@H]1C(=O)Nc1ccc(/C=C/c2ccc(NC(=O)[C@@H]3CCCN3C(=O)c3ncsc3C(C)C)cc2)cc1` [Example 190], 100 to 1000 nM.
In the case of `O=C(Nc1ccc(/C=C/c2ccc(NC(=O)[C@@H]3CCCN3C(=O)c3cccc4ccccc34)cc2)cc1)[C@@H]1CCCN1C(=O)c1cccc2ccccc12` [Example 163], the EC50 was in the range of 1000 to 10000 nM.
Consider `CC(C)N(C(=O)N1CCCC1C(=O)Nc1ccc(/C=C/c2ccc(NC(=O)C3CCCN3C(=O)N(C(C)C)C(C)C)cc2)cc1)C(C)C` (centres unmarked) [Example 284], for which the EC50 was in the range of 0.1 to 90 nM.
In the case of `O=C(Cc1cccnc1)Nc1ccc(/C=C/c2ccc(NC(=O)[C@@H]3CCCN3C(=O)Cc3cccnc3)cc2)cc1` [Example 270] it was 0.1 to 90 nM; in that of `O=C(Nc1ccc(/C=C/c2ccc(NC(=O)[C@@H]3CCCN3C(=O)Cc3ccccc3)c(F)c2)cc1F)[C@@H]1CCCN1C(=O)Cc1ccccc1` [Example 276], 0.1 to 90 nM; in that of `O=C(Nc1ccc(/C=C/c2ccc(NC(=O)[C@@H]3CCCN3C(=O)c3ccccc3)cc2)cc1)[C@@H]1CCCN1C(=O)c1ccccc1` [Example 61], 100 to 1000 nM.
Turning to `Cc1ccccc1C(=O)N1CCC[C@H]1C(=O)Nc1ccc(/C=C/c2ccc(NC(=O)[C@@H]3CCCN3C(=O)c3ccccc3C)cc2)cc1` [Example 125], the EC50 was in the range of 100 to 1000 nM.
As to `Cc1cc(CC(=O)N2CCC[C@H]2C(=O)Nc2ccc(/C=C/c3ccc(NC(=O)[C@@H]4CCCN4C(=O)C(C)C)cc3)cc2)on1` [Example 98], the half-maximal effective concentration (EC50) lay in the range of 0.1 to 90 nM.
With `O=C(Nc1ccc(/C=C/c2ccc(NC(=O)[C@@H]3CCCN3C(=O)c3ccccc3NCc3ccco3)cc2)cc1)[C@@H]1CCCN1C(=O)c1ccccc1NCc1ccco1` [Example 170], the 50% effective concentration (EC50) lay within 100 to 1000 nM.
For `Cc1ccc(-c2ccccc2C(=O)N2CCC[C@H]2C(=O)Nc2ccc(/C=C/c3ccc(NC(=O)[C@@H]4CCCN4C(=O)c4ccccc4-c4ccc(C)s4)cc3)cc2)s1` [Example 239] the value was 1000 to 10000 nM; for `CC(C)(C)O[C@@H]1C[C@@H](C(=O)Nc2ccc(/C=C/c3ccc(NC(=O)[C@@H]4CCCN4C(=O)Cc4ccccc4)cc3)cc2)N(C(=O)OCc2ccccc2)C1` [Example 274], 0.1 to 90 nM; for `Cn1cncc1C(=O)N1CCC[C@H]1C(=O)Nc1ccc(/C=C/c2ccc(NC(=O)[C@@H]3CCCN3C(=O)c3cncn3C)cc2)cc1` [Example 211], 0.1 to 90 nM.
For `O=C(Nc1ccc(/C=C/c2ccc(NC(=O)[C@@H]3CCCN3C(=O)[C@H]3CCCO3)cc2)cc1)C1CCC1` [Example 262] the value was 100 to 1000 nM; for `COc1cccc(C(=O)N2CCC[C@H]2C(=O)Nc2ccc(/C=C/c3ccc(NC(=O)[C@@H]4CCCN4C(=O)c4cccc(OC)c4OC)cc3)cc2)c1OC` [Example 146], 1000 to 10000 nM; for `CN(C)c1cc(C(=O)N2CCC[C@H]2C(=O)Nc2ccc(/C=C/c3ccc(NC(=O)[C@@H]4CCCN4C(=O)c4cc(N(C)C)c5ccccc5n4)cc3)cc2)nc2ccccc12` [Example 297], 0.1 to 90 nM.
Regarding `O=C(Nc1ccc(/C=C/c2ccc(NC(=O)[C@@H]3CCCN3C(=O)c3ccccc3NCc3ccccc3)cc2)cc1)[C@@H]1CCCN1C(=O)Cc1cccnc1` [Example 151], the EC50 lay within 100 to 1000 nM.
For `O=C(Nc1ccc(/C=C/c2ccc(NC(=O)[C@@H]3CCCN3C(=O)c3nccn3Cc3ccccc3)cc2)cc1)[C@@H]1CCCN1C(=O)c1nccn1Cc1ccccc1` [Example 179] the value was 1000 to 10000 nM; for `O=C(Nc1ccc(/C=C/c2ccc(NC(=O)[C@@H]3CCCN3C(=O)c3ccccc3NCc3ccccc3)cc2)cc1)[C@@H]1CCCN1C(=O)c1ccccc1NCc1ccccc1` [Example 141], 1000 to 10000 nM.
In the case of `CN1CCC[C@H]1C(=O)N1CCC[C@H]1C(=O)Nc1ccc(/C=C/c2ccc(NC(=O)[C@@H]3CCCN3C(=O)[C@@H]3CCCN3C)cc2)cc1` [Example 157] it was 1000 to 10000 nM.
In the case of `N#CC1(C(=O)N2CCC[C@H]2C(=O)Nc2ccc(/C=C/c3ccc(NC(=O)[C@@H]4CCCN4C(=O)C4(C#N)CC4)cc3)cc2)CC1` [Example 66] it was 0.1 to 90 nM; in that of `CC(C)C(=O)N1CCC[C@H]1C(=O)Nc1ccc(/C=C/c2ccc(NC(=O)[C@@H]3CCCN3C(=O)Cc3cccs3)cc2)cc1` [Example 102], 0.1 to 90 nM.
On to `O=C(Nc1ccc(/C=C/c2ccc(NC(=O)[C@@H]3CCCN3C(=O)c3ccccc3OCc3ccccc3)cc2)cc1)[C@@H]1CCCN1C(=O)c1ccccc1OCc1ccccc1` [Example 148], for which the EC50 lay in the range of 1000 to 10000 nM.
For `O=C(Nc1ccc(/C=C/c2ccc(NC(=O)[C@@H]3CCCN3C(=O)C3Cc4ccccc43)cc2)cc1)[C@@H]1CCCN1C(=O)C1Cc2ccccc21` (some centres unmarked) [Example 116] the value was 1000 to 10000 nM.
In the case of `O=C(Nc1ccc(/C=C/c2ccc(NC(=O)[C@@H]3CCCN3C(=O)c3cn[nH]c3)cc2)cc1)[C@@H]1CCCN1C(=O)c1cn[nH]c1` [Example 77], the EC50 lay in the range of 0.1 to 90 nM.

Values taken from US8143288B2, “Inhibitors of HCV replication” (priority 2005, dated 2012).
